According to patent US3968101A, “8-Substituted cyclic nucleotides by free radical alkylation and acylation” (ICN Pharmaceuticals, Inc., priority 1974, dated 1976):
Counter-ions that a name gives are not always drawn.

How the values were obtained:
[1] = target: cyclic nucleotide phosphodiesterase; experiment: Inhibition of cAMP hydrolysis by beef heart cyclic nucleotide phosphodiesterase; assay type: biochemical; conditions: beef heart enzyme; 50% inhibition of cleavage of cAMP, cAMP = 1.6 × 10^-7 M; read-out: Phosphodiesterase Inhibition, I50 Heart
Source text: (§1) Homogenates of rabbit lung and beef heart are made in sucrose-Tris-magnesium buffer and are subjected to centrifugation at low speed to remove nuclei and cell debris. […] The precipitation which forms at 0-50% saturation is collected by centrifugation at 20,000 × g, dissolved in Tris-magnesium buffer, and dialyzed overnight against the same buffer.

[2] = tested on: cAMP-dependent protein kinase; experiment: Activation of cAMP-dependent protein kinase isolated from beef brain; assay type: biochemical, bovine; conditions: for Protein Kinase, Ka ' Bovine: ratio of Ka of cAMP to Ka of test compound, bovine brain cAMP-dependent kinase
Source text: The new 8-substituted purine cyclic nucleotides were examined for their ability to stimulate both a cAMP-dependent protein kinase isolated from beef brain and a cGMP-dependent protein kinase isolated from lobster tail (see Table II).
a Ka ' = The ratio of Ka of the dependent cyclic nucleotide (cAMP for bovine brain and cGMP for lobster tail) to the Ka of the test compound.

[3] = tested on: cGMP-dependent protein kinase; experiment: Activation of cGMP-dependent protein kinase isolated from lobster tail; assay type: biochemical; conditions: for Protein Kinase, Ka ' Lobster: ratio of Ka of cGMP to Ka of test compound, lobster tail cGMP-dependent kinase; for ability to activate the cGMP-dependent protein kinase (in words): lobster tail kinase
Source text: The new 8-substituted purine cyclic nucleotides were examined for their ability to stimulate both a cAMP-dependent protein kinase isolated from beef brain and a cGMP-dependent protein kinase isolated from lobster tail (see Table II). […]. Acad. Sci. USA 64, 1349, Kuo et al, 1971, J. Biol. Chem. 246,7159) to be mediated by its activation of a protein kinase.
The Ka of cAMP for the cAMP-dependent protein kinase is about the same (see footnote a, Table II) as the Ka of cGMP for the cGMP-dependent protein kinase. Comparison of the Ka ' values (the ratio of Ka of the dependent cyclic nucleotide to the Ka of the test compound) is, therefore, an accurate guide to the type of kinase stimulation seen at a given cyclic nucleotide concentration.
a Ka ' = The ratio of Ka of the dependent cyclic nucleotide (cAMP for bovine brain and cGMP for lobster tail) to the Ka of the test compound. […]

[4] = target: cyclic nucleotide phosphodiesterase; experiment: Inhibition of cAMP hydrolysis by rabbit lung cyclic nucleotide phosphodiesterase; assay type: biochemical; conditions: rabbit lung enzyme; 50% inhibition of cleavage of cAMP, cAMP = 1.6 × 10^-7 M; read-out: Phosphodiesterase Inhibition, I50 Lung
Source text: as §1

SMILES | IC50 [1] | Protein Kinase, Ka ' Bovine [2] | Protein Kinase, Ka ' Lobster [3] | IC50 [4] | ability to activate the cGMP-dependent protein kinase (in words) [3] | activation of the cAMP-dependent protein kinase (in words) ([2]; bovine brain kinase) | specificity between cGMP-dependent and cAMP-dependent protein kinase (in words) ([3]; lobster tail cGMP-dependent versus bovine brain cAMP-dependent kinase)
Cc1nc2c(=O)[nH]c(N)nc2n1[C@@H]1O[C@@H]2COP(=O)(O)O[C@H]2[C@H]1O [Compound 2, 8-Methylguanosine 3',5'-Cyclic Phosphate] | 200 µM | 0.015 | 0.066 | 400 µM |  |  | 
CC(C)c1nc2c(=O)[nH]c(N)nc2n1[C@@H]1O[C@@H]2COP(=O)(O)O[C@H]2[C@H]1O [Compound 3, 8-Isopropylguanosine 3',5'-Cyclic Phosphate] | 100 µM | < 0.001 | 0.70 | 330 µM |  |  | 
Nc1nc2c(nc(Cc3ccccc3)n2[C@@H]2O[C@@H]3COP(=O)(O)O[C@H]3[C@H]2O)c(=O)[nH]1 [Compound 4, 8-Benzylguanosine 3',5'-Cyclic Phosphate] | 140 µM | < 0.001 | 0.10 | 130 µM |  |  | 
CC(C)(C)Cc1nc2c(=O)[nH]c(N)nc2n1[C@@H]1O[C@@H]2COP(=O)(O)O[C@H]2[C@H]1O [Compound 5, 8-Neopentylguanosine 3',5'-Cyclic Phosphate] | 100 µM | < 0.001 | 0.16 | 70 µM |  |  | 
CC(=O)c1nc2c(=O)[nH]c(N)nc2n1[C@@H]1O[C@@H]2COP(=O)(O)O[C@H]2[C@H]1O [Compound 6, 8-Acetylguanosine 3',5' -Cyclic Phosphate] | 170 µM | < 0.001 | 0.56 | 70 µM |  |  | 
CCCC(=O)c1nc2c(=O)[nH]c(N)nc2n1[C@@H]1O[C@@H]2COP(=O)(O)O[C@H]2[C@H]1O [Compound 7, 8-Butyrylguanosine 3',,5' -cyclic phosphate] | 90 µM | 0.064 | 0.20 | 70 µM |  |  | 
CC(C)C(=O)c1nc2c(=O)[nH]c(N)nc2n1[C@@H]1O[C@@H]2COP(=O)(O)O[C@H]2[C@H]1O [Compound 8, 8-Isobutyrylguanosine 3',5'-Cyclic Phosphate Ammonium Salt] | 11 µM | < 0.01 | 0.13 |  |  |  | 
Nc1nc2c(nc(C(=O)c3ccccc3)n2[C@@H]2O[C@@H]3COP(=O)(O)O[C@H]3[C@H]2O)c(=O)[nH]1 [Compound 9, 8-Benzoylguanosine 3',5'-cyclic phosphate] | 50 µM | < 0.005 | 0.68 |  |  |  | 
NC(=O)c1nc2c(=O)[nH]c(N)nc2n1[C@@H]1O[C@@H]2COP(=O)(O)O[C@H]2[C@H]1O [Compound 10, 8-Carbamoylguanosine 3',5'-Cyclic Phosphate] | 100 µM | < 0.001 | 1.5 | 400 µM | superior to cGMP |  | 
CC(O)c1nc2c(=O)[nH]c(N)nc2n1[C@@H]1O[C@@H]2COP(=O)(O)O[C@H]2[C@H]1O (some centres unmarked) [Compound 11, 8-(1-Hydroxyethyl)guanosine 3',5'-Cyclic Phosphate] | 170 µM | < 0.01 | 1.8 | 400 µM | superior to cGMP |  | 
CC(C)C(O)c1nc2c(=O)[nH]c(N)nc2n1[C@@H]1O[C@@H]2COP(=O)(O)O[C@H]2[C@H]1O (some centres unmarked) [Compound 13, 8-(1-Hydroxy-2-methylpropyl)guanosine 3',5'-Cyclic Phosphate] | 38 µM | < 0.001 | 0.72 | 180 µM |  |  | 
Nc1nc2c(nc(C(O)c3ccccc3)n2[C@@H]2O[C@@H]3COP(=O)(O)O[C@H]3[C@H]2O)c(=O)[nH]1 (stereo partly drawn) [Compound 14, 8-(α-Hydroxybenzyl)guanosine 3',5'-Cyclic Phosphate] | > 300 µM | < 0.005 | 2.3 | 140 µM | superior to cGMP |  | 
CC(=NNC(N)=S)c1nc2c(=O)[nH]c(N)nc2n1[C@@H]1O[C@@H]2COP(=O)(O)O[C@H]2[C@H]1O [Compound 15, 8-Acetylguanosine 3',5'-Cyclic Phosphate Thiosemicarbazone] | 50 µM | < 0.005 | 0.052 | 26 µM |  |  | 
CC(=NNC(N)=O)c1nc2c(=O)[nH]c(N)nc2n1[C@@H]1O[C@@H]2COP(=O)(O)O[C@H]2[C@H]1O [Compound 16, 8-Acetylguanosine 3',5'-Cyclic Phosphate Semicarbazone] | 125 µM | < 0.005 | 0.031 | 200 µM |  |  | 
CC(=NNC(=O)Nc1ccccc1)c1nc2c(=O)[nH]c(N)nc2n1[C@@H]1O[C@@H]2COP(=O)(O)O[C@H]2[C@H]1O [Compound 17, 8-Acetylguanosine 3',5'-Cyclic Phosphate 4-Phenylsemicarbazone] | 40 µM | < 0.01 | 0.11 | 150 µM |  |  | 
CC(=NNc1ccccc1)c1nc2c(=O)[nH]c(N)nc2n1[C@@H]1O[C@@H]2COP(=O)(O)O[C@H]2[C@H]1O [Compound 18, 8-Acetylguanosine 3',5'-Cyclic Phosphate Phenylhydrazone] | 100 µM | < 0.005 | 0.44 | 2000 µM |  |  | 
CC(=O)c1nc2c(=O)[nH]cnc2n1[C@@H]1O[C@@H]2COP(=O)(O)O[C@H]2[C@H]1O [Compound 20, 8-Acetylinosine 3',5'-Cyclic Phosphate] | 1000 µM | 0.022 | 0.0041 | 2000 µM | slight activation | slight activation | slightly greater specificity for the cAMP-dependent enzyme
Cn1c(=O)c2[nH]cnc2n(C)c1=O [theophylline, reference compound] | 100 µM |  |  | 200 µM |  |  | 
